Assay results reported in patent US20260124222A1, “ISOTHIAZOLYLCARBOXAMIDE COMPOUNDS AND THEIR USE IN THERAPY” (HOTSPOT THERAPEUTICS, INC., priority 2022, published 2026).

Target: T1, Avi-tagged FL MALT-1 (Homo sapiens, UniProt Q9UDY8)
T1 construct: Avi-tagged FL MALT-1 (Pharmaron, stored at −70° C.); Avi-tag; purchased Pharmaron
T1 sequence (Q9UDY8 1-824): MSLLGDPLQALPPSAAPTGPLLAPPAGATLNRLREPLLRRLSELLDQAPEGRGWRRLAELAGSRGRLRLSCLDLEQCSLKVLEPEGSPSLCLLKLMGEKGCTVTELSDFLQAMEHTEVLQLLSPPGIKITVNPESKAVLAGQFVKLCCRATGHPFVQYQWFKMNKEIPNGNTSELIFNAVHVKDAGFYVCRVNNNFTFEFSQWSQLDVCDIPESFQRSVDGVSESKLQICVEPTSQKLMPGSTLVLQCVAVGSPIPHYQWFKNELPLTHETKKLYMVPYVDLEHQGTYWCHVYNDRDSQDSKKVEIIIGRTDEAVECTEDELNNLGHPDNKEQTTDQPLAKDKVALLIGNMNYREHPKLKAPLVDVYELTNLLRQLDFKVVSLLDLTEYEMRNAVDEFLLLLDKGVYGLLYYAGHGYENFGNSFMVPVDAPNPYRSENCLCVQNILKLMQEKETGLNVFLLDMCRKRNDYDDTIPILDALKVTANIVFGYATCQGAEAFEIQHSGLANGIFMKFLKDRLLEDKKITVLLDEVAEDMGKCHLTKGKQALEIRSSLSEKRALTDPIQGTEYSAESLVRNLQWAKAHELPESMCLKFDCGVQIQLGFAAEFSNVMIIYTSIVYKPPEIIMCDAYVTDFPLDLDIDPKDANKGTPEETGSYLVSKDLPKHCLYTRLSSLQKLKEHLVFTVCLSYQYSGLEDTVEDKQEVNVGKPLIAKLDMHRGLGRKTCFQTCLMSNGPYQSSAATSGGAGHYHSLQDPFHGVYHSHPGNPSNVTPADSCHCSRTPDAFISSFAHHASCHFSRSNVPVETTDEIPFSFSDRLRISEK
Assay: MALT-1 Fluorogenic Peptide Cleavage Assay (MALT1 inhibition assay)
Format: biochemical
Details: Ac-LRSR-AMC peptide substrate; 30 min pre-incubation, 90 min reaction at room temperature; fluorescence
Method in brief: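 Full-length Avi-tagged enzyme preincubated 30 min at room temperature with compound (2% DMSO final) in HEPES pH 6.89 buffer with sodium citrate, TCEP, EDTA and CHAPS. Ac-LRSR-AMC substrate added at Km or 10×Km (working stocks 50 or […] μM); fluorescence (ex 342/em 441 nm) after 90 min; IC50 from sigmoidal fit.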

| IC50 [µM] | SMILES |
| --- | --- |
| ≤ 0.4 | O=C(Nc1ccnc(C(F)(F)F)c1)c1snc(-c2ccccc2C(F)(F)F)c1C1CC1 [I-164, 4-cyclopropyl-3-(2-(trifluoromethyl)phenyl)-N-(2-(trifluoromethyl)pyridin-4-yl)isothiazole-5-carboxamide] |
| 0.4 to 1 | N#Cc1cc(NC(=O)c2snc(C3CCOC3)c2C2CC2)cnc1-n1nccn1 (centres unmarked) [I-110] |
| ≤ 0.4 | CN(C)c1nsc(C(=O)Nc2cnc(-n3nccn3)c(C#N)c2)c1C(F)(F)F [I-102] |
| ≤ 0.4 | Cc1nn(C)cc1-c1nsc(C(=O)Nc2ccnc(C(F)(F)F)c2)c1C1CC1 [I-143, 4-cyclopropyl-3-(1,3-dimethyl-1H-pyrazol-4-yl)-N-(2-(trifluoromethyl)pyridin-4-yl)isothiazole-5-carboxamide] |
| ≤ 0.4 | Cn1cc2c(-c3nsc(C(=O)Nc4cnc(-n5nccn5)c(C#N)c4)c3C3CC3)cccc2n1 [I-206, N-(5-cyano-6-(2H-1,2,3-triazol-2-yl)pyridin-3-yl)-4-cyclopropyl-3-(2-methyl-2H-indazol-4-yl)isothiazole-5-carboxamide] |
| > 2.5 | O=C(Nc1cncc(F)c1)c1snc(-c2ccccc2)c1C1CC1 [I-43, 4-CYCLOPROPYL-N-(5-FLUOROPYRIDIN-3-YL)-3-PHENYLISOTHIAZOLE-5-CARBOXAMIDE] |
| ≤ 0.4 | Cc1cc(NC(=O)c2snc(-c3cccn4nccc34)c2C2CC2)ccn1 [I-211, 4-cyclopropyl-N-(2-methylpyridin-4-yl)-3-(pyrazolo[1,5-a]pyridine-4-yl)isothiazole-5-carboxamide] |
| ≤ 0.4 | COc1nccc2c(-c3nsc(C(=O)Nc4cnc(-n5nccn5)c(Cl)c4)c3C(F)(F)F)cccc12 [I-106] |
| ≤ 0.4 | O=C(Nc1ccnc(C(F)(F)F)c1)c1snc(-c2cccc(C(F)(F)F)c2)c1C1CC1 [I-138, 4-cyclopropyl-3-(3-(trifluoromethyl)phenyl)-N-(2-(trifluoromethyl)pyridin-4-yl)isothiazole-5-carboxamide] |
| ≤ 0.4 | O=C(Nc1cncc(Cl)c1)c1snc(-c2ccccc2)c1C1CC1 [I-42, N-(5-CHLOROPYRIDIN-3-YL)-4-CYCLOPROPYL-3-PHENYLISOTHIAZOLE-5-CARBOXAMIDE] |
| ≤ 0.4 | N#Cc1cc(NC(=O)c2snc(-c3cccc4ncccc34)c2C2CC2)ccc1C(=O)N1CC(O)C1 [I-180, N-(3-cyano-4-(3-hydroxyazetidine-1-carbonyl)phenyl)-4-cyclopropyl-3-(quinolin-5-yl)isothiazole-5-carboxamide] |
| ≤ 0.4 | Cc1noc(C)c1-c1nsc(C(=O)Nc2ccnc(C(F)(F)F)c2)c1C1CC1 [I-197, 4-cyclopropyl-3-(3,5-dimethylisoxazol-4-yl)-N-(2-(trifluoromethyl)pyridin-4-yl)isothiazole-5-carboxamide] |
| ≤ 0.4 | N#Cc1cc(NC(=O)c2snc(-c3ccccc3)c2C2CC2)ccc1C(=O)N1CC(O)C1 [I-32] |
| ≤ 0.4 | O=C(Nc1ccc(C(=O)N2CC(O)C2)c(Cl)c1)c1snc(-c2ccccc2)c1C(F)(F)F [I-16, N-(3-CHLORO-4-(3-HYDROXYAZETIDINE-1-CARBONYL)PHENYL)-3-PHENYL-4-(TRIFLUOROMETHYL)ISOTHIAZOLE-5-CARBOXAMIDE] |
| 0.4 to 1 | Cn1ncc2cc(NC(=O)c3snc(-c4ccccc4)c3C3CC3)cnc21 [I-47, 4-CYCLOPROPYL-N-(1-METHYL-1H-PYRAZOLO [3,4-B]PYRIDIN-5-YL)-3-PHENYLISOTHIAZOLE-5-CARBOXAMIDE] |
| ≤ 0.4 | O=C(Nc1ccnc(C(F)(F)F)c1)c1snc(-c2ccc3cn[nH]c3c2)c1C1CC1 [I-169, 4-cyclopropyl-3-(1H-indazol-6-yl)-N-(2-(trifluoromethyl)pyridin-4-yl)isothiazole-5-carboxamide] |
| ≤ 0.4 | Cc1cccc(-c2nsc(C(=O)Nc3ccnc(C(F)(F)F)c3)c2C2CC2)c1 [I-178, 4-cyclopropyl-3-(3-methylphenyl)-N-[2-(trifluoromethyl)pyridin-4-yl]-1,2-thiazole-5-carboxamide] |
| ≤ 0.4 | O=C(Nc1ccc(C(=O)N2CC(O)C2)c(Cl)c1)c1snc(-c2cccc3c(=O)[nH]ccc23)c1C1CC1 [I-198, N-(3-chloro-4-(3-hydroxyazetidine-1-carbonyl)phenyl)-4-cyclopropyl-3-(1-oxo-1,2-dihydroisoquinolin-5-yl)isothiazole-5-carboxamide] |

| IC50 [µM] | SMILES |
| --- | --- |
| ≤ 0.4 | Cc1cc(NC(=O)c2snc(-c3cccc4ncoc34)c2C2CC2)cnc1-n1nccn1 [I-113] |
| ≤ 0.4 | Cn1ccc2c(-c3nsc(C(=O)Nc4ccnc(C(F)(F)F)c4)c3C3CC3)ccnc21 [I-175, 4-cyclopropyl-3-{1-methylpyrrolo[2,3-b]pyridin-4-yl}-N-[2-(trifluoromethyl)pyridin-4-yl]-1,2-thiazole-5-carboxamide] |
| ≤ 0.4 | CNC(=O)c1ccc(NC(=O)c2snc(-c3ccccc3)c2C2CC2)cc1Cl [I-23, N-(3-CHLORO-4-(METHYLCARBAMOYL) PHENYL)-4-CYCLOPROPYL-3-PHENYLISOTHIAZOLE-5-CARBOXAMIDE] |
| ≤ 0.4 | O=C(Nc1ccnc(C(F)(F)F)c1)c1snc(-c2cccc3ocnc23)c1C1CC1 [I-162, 3-(1,3-benzoxazol-4-yl)-4-cyclopropyl-N-[2-(trifluoromethyl)pyridin-4-yl]-1,2-thiazole-5-carboxamide] |
| 1 to 2.5 | O=C(Nc1ccc(C(=O)N2CC(O)C2)c(Cl)c1)c1snc(-c2ncccc2Cl)c1C1CC1 [I-49, N-(3-CHLORO-4-(3-HYDROXYAZETIDINE-1-CARBONYL)PHENYL)-3-(3-CHLOROPYRIDIN-2-YL)-4-CYCLOPROPYL-ISOTHIAZOLE-5-CARBOXAMIDE] |
| ≤ 0.4 | COc1ccccc1-c1nsc(C(=O)Nc2ccnc(C(F)(F)F)c2)c1C1CC1 [I-161, 4-cyclopropyl-3-(2-methoxyphenyl)-N-[2-(trifluoromethyl)pyridin-4-yl]-1,2-thiazole-5-carboxamide] |
| ≤ 0.4 | O=C(Nc1ccnc(C(F)(F)F)c1)c1snc(-c2ccccc2)c1C(F)(F)F [I-15, 3-PHENYL-4-(TRIFLUOROMETHYL)-N-(2-(TRIFLUOROMETHYL)PYRIDIN-4-YL)ISOTHIAZOLE-5-CARBOXAMIDE] |
| ≤ 0.4 | COCCN(C)C(=O)c1ccc(NC(=O)c2snc(-c3ccccc3)c2C2CC2)cc1Cl [I-25, N-(3-CHLORO-4-((2-METHOXYETHYL) (METHYL) CARBAMOYL)PHENYL)-4-CYCLOPROPYL-3-PHENYL-ISOTHIAZOLE-5-CARBOXAMIDE] |
| ≤ 0.4 | Cn1cc(-c2nsc(C(=O)Nc3cnc(-n4nccn4)c(C#N)c3)c2C(F)(F)F)ccc1=O [I-36, N-(5-CYANO-6-(2H-1,2,3-TRIAZOL-2-YL)PYRIDIN-3-YL)-3-(1-METHYL-6-OXO-1,6-DIHYDROPYRIDIN-3-YL)-4-(TRIFLUORO-METHYL)ISOTHIAZOLE-5-CARBOXAMIDE] |
| ≤ 0.4 | O=C(Nc1cncc(C(F)(F)F)c1)c1snc(-c2cccc3ncccc23)c1C1CC1 [I-119] |
| ≤ 0.4 | O=C(Nc1cnc(-n2nccn2)c(Cl)c1)c1snc(-c2ncccc2Cl)c1C(F)(F)F [I-19, N-(5-CHLORO-6-(2H-1,2,3-TRIAZOL-2-YL) PYRIDIN-3-YL)-3-(3-CHLOROPYRIDIN-2-YL)-4-(TRIFLUOROMETHYL) ISOTHIAZOLE-5-CARBOXAMIDE] |
| > 2.5 | CN1Cc2cc(NC(=O)c3snc(-c4ccccc4)c3C3CC3)ccc2C1=O [I-62, 4-CYCLOPROPYL-N-(2-METHYL-1-OXOISOINDOLIN-5-YL)-3-PHENYLISOTHIAZOLE-5-CARBOXAMIDE] |
| 0.4 to 1 | O=C(Nc1ccnc(C(F)(F)F)c1)c1snc(-c2ccc(C(F)(F)F)cc2)c1C1CC1 [I-137, 4-cyclopropyl-3-[4-(trifluoromethyl)phenyl]-N-[2-(trifluoromethyl)pyridin-4-yl]-1,2-thiazole-5-carboxamide] |
| > 2.5 | CN1CCC(c2nsc(C(=O)Nc3cnc(-n4nccn4)c(C#N)c3)c2C2CC2)CC1 [I-122] |
| ≤ 0.4 | O=C(Nc1ccnc(C(F)(F)F)c1)c1snc(-c2ccncc2F)c1C1CC1 [I-155, 4-cyclopropyl-3-(3-fluoropyridin-4-yl)-N-[2-(trifluoromethyl)pyridin-4-yl]-1,2-thiazole-5-carboxamide] |
| ≤ 0.4 | CC(C)c1nsc(C(=O)Nc2cnc(-n3nccn3)c(Cl)c2)c1C1CC1 [I-60, N-(5-CHLORO-6-(2H-1,2,3-TRIAZOL-2-YL) PYRIDIN-3-YL)-4-CYCLOPROPYL-3-ISOPROPYLISOTHIAZOLE-5-CARBOXAMIDE] |
| ≤ 0.4 | O=C(Nc1ccnc(C(F)(F)F)c1)c1snc(-c2cncnc2)c1C1CC1 [I-144, 4-cyclopropyl-3-(pyrimidin-5-yl)-N-[2-(trifluoromethyl)pyridin-4-yl]-1,2-thiazole-5-carboxamide] |
